Test results from patent US12187684B2, “Benzimidazole derivatives as modulators of retinoid-related orphan receptor gamma (RORγ) and pharmaceutical use thereof” (Jiangsu Hengrui Medicine Co., Ltd., priority 2018, dated 2025).

Experiments:
[1] = test system: IL-17 production, human PBMC cells; test: IL-17 production assay using human PBMC; type: cell-based; conditions: human PBMC stimulated by cytostim for 3 days, IL-17 ELISA of supernatant
Excerpt: Test Example 2. IL-17 Production Assay Using Human PBMC
• 1. Human PBMC cells (Cat No. 70025.1, Zenbio) • 2. Lymphocyte medium (Cat No. LYMPH-1, Zenbio) • 3. TexMACS (Cat No. 130-097-196, Miltenyi) • 4. Cytostim-human (Cat No. 1130-092-173, Miltenyi) • 5. Human IL-17 ELISA (Cat No. D1700, R&D systems) • 6. Tecan Infinite M1000 plate reader (Tecan)
Experimental Procedure for IL-17 Production Assay
Cryopreserved peripheral blood human mononuclear cells (PBMCs) were rapidly thawed in warmed Lymphocyte media, and centrifuged cell suspension at 1000 rpm for 10 minutes. The supernatant was removed, and the cell pellets were gently resuspended in TexMACS media.
Human PBMC cells in TexMACS media were plated at 1×10^5 each well in triplicate. The test compounds at various concentrations or vehicle control (<0.5% DMSO) were added into cell culture. The cells were stimulated by cytostim (10 μL/mL) for 3 days in a humidified, 5% CO2 incubator at 37° C.
After incubation, the cell culture supernatant was harvested, and then removed particulates by centrifugation. Human IL-17 in the supernatant was measured using human IL-17 ELISA kit according to the manufacturer's protocol. IC50 values were determined using GraphPad Prism by plotting the compounds concentration versus percent inhibition.

[2] = molecular target: T1, RORγ LBD-GST tagged (Homo sapiens, UniProt P51449); test: LanthaScreen TR-FRET RORγ coactivator assay; type: biochemical; conditions: Fluorescein-D22 coactivator peptide, 1 hour room temperature
T1 construct: RORγ LBD-GST tagged (Cat No. RORC-114H, Creative Biomart); purchased Creative Biomart RORC-114H
T1 sequence (P51449 269-508 limits assumed): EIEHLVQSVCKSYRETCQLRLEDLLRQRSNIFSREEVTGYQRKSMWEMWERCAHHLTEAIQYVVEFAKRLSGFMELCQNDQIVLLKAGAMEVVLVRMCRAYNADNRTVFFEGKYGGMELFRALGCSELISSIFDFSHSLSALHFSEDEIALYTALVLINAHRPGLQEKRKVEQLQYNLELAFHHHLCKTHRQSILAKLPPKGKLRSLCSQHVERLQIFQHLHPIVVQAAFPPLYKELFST
Summary of the method: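 GST-tagged RORγ LBD (25 ng/reaction) was incubated in coregulator buffer D with 5 mM DTT and compound (top 3 μM, 7-fold steps, 7 doses), then with a mix containing 0.6 μM fluorescein-D22 peptide and 8 nM Tb anti-GST antibody. After 1 h at room temperature in the dark, 520/495 nm TR-FRET was read. IC50 came from log concentration versus percent inhibition.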

| IC50 [2] | Structure (SMILES) | IC50 ([1]; Homo sapiens, PBMC, 72 h) | IC50 [1] |
| --- | --- | --- | --- |
| 0.01 µM | CC(=O)NCCC(c1ccc(S(=O)(=O)CC2CC2)cc1)c1nc2cc(-c3ccccc3OC(F)F)c(Cl)cc2[nH]1 (single isomer, unassigned) [166 or 167 made from Int-164A, (R or S)—N-(3-(6-chloro-5-(2-(difluoromethoxy)phenyl)-1H-benzo[d]imidazol-2-yl)-3-(4-((cyclopropylmethyl)sulfonyl)phenyl)propyl)acetamide] | 0.066 µM | – |
| 0.047 µM | CC(=O)NCCC(c1ccc(S(=O)(=O)CC2CC2)cc1)c1nc2cc(-c3ccccc3OC(F)F)c(Cl)cc2[nH]1 (single isomer, unassigned) [166 or 167 made from Int-164B, (R or S)—N-(3-(6-chloro-5-(2-(difluoromethoxy)phenyl)-1H-benzo[d]imidazol-2-yl)-3-(4-((cyclopropylmethyl)sulfonyl)phenyl)propyl)acetamide] | – | 0.072 µM |
| 0.035 µM | CCS(=O)(=O)c1ccc(C(CCO)c2nc3c(Cl)c(N4CCC(F)(F)CC4)c(Cl)cc3[nH]2)cc1 (single isomer, unassigned) [the longer retention time of 139 and 140, 3-(4,6-dichloro-5-(4,4-difluoropiperidin-1-yl)-1H-benzo[d]imidazol-2-yl)-3-(4-(ethylsulfonyl)phenyl)propan-1-ol] | – | 0.026 µM |
| 0.004 µM | CCS(=O)(=O)c1ccc(C(CC(N)=O)c2nc3c(Cl)c(N4CCC(F)(F)CC4)c(Cl)cc3[nH]2)cc1 (single isomer, unassigned) [the longer retention time of 146 and 147, 3-(4,6-dichloro-5-(4,4-difluoropiperidin-1-yl)-1H-benzo[d]imidazol-2-yl)-3-(4-(ethylsulfonyl)phenyl)propanamide] | – | 0.014 µM |
| 0.083 µM | CC(C)Oc1ccccc1-c1cc2nc(C(CC(N)=O)c3ccc(S(=O)(=O)CC4CC4)cc3)[nH]c2cc1Cl (single isomer, unassigned) [the longer retention time of 148 and 149, 3-(6-chloro-5-(2-isopropoxyphenyl)-1H-benzo[d]imidazol-2-yl)-3-(4-((cyclopropylmethyl)sulfonyl)phenyl)propanamide] | – | 0.022 µM |
| 0.026 µM | CC(C)Oc1ccccc1-c1cc2nc(C(CCO)c3ccc(S(=O)(=O)CC4CC4)cc3)[nH]c2cc1Cl (single isomer, unassigned) [the longer retention time of 150 and 151, 3-(6-chloro-5-(2-isopropoxyphenyl)-1H-benzo[d]imidazol-2-yl)-3-(4-((cyclopropylmethyl)sulfonyl)phenyl)propan-1-ol] | – | 0.031 µM |
| 0.013 µM | NC(=O)CC(c1ccc(S(=O)(=O)CC2CC2)cc1)c1nc2cc(-c3ccccc3OC(F)F)c(Cl)cc2[nH]1 (single isomer, unassigned) [the longer retention time of 152 and 153, 3-(6-chloro-5-(2-(difluoromethoxy)phenyl)-1H-benzo[d]imidazol-2-yl)-3-(4-((cyclopropylmethyl)sulfonyl)phenyl)propanamide] | – | 0.01 µM |
| 0.074 µM | O=S(=O)(CC1CC1)c1ccc(C(CCO)c2nc3cc(-c4ccccc4OC(F)F)c(Cl)cc3[nH]2)cc1 (single isomer, unassigned) [the longer retention time of 155 and 156, 3-(6-chloro-5-(2-(difluoromethoxy)phenyl)-1H-benzo[d]imidazol-2-yl)-3-(4-((cyclopropylmethyl)sulfonyl)phenyl)propan-1-ol] | – | 0.026 µM |
| 0.003 µM | O=S(=O)(CC1CC1)c1ccc(C(CCO)c2nc3cc(Cl)c(N4CCC(F)(F)CC4)c(Cl)c3[nH]2)cc1 (single isomer, unassigned) [the longer retention time of 160 and 161, 3-(4-((cyclopropylmethyl)sulfonyl)phenyl)-3-(5,7-dichloro-6-(4,4-difluoropiperidin-1-yl)-1H-benzo[d]imidazol-2-yl)propan-1-ol] | – | 0.004 µM |
| 0.31 µM | NC(=O)CC(c1ccc(S(=O)(=O)CC2CC2)cc1)c1nc2cc(Cl)c(N3CCC(F)(F)CC3)c(Cl)c2[nH]1 (single isomer, unassigned) [the longer retention time of 162 and 163, 3-(4-((cyclopropylmethyl)sulfonyl)phenyl)-3-(5,7-dichloro-6-(4,4-difluoropiperidin-1-yl)-1H-benzo[d]imidazol-2-yl)propanamide] | – | 0.029 µM |
| 0.373 µM | CCS(=O)(=O)c1ccc(Cc2nc3c(Cl)c(-c4ccccc4C(F)(F)F)c(Cl)cc3[nH]2)cc1 [Example 3, 4,6-dichloro-2-(4-(ethylsulfonyl)benzyl)-5-(2-(trifluoromethyl)phenyl)-1H-benzo[d]imidazole] | 0.052 µM | – |
| 0.16 µM | CCS(=O)(=O)c1ccc(C(CO)c2nc3c(Cl)c(-c4ccccc4OC(F)(F)F)c(Cl)cc3[nH]2)cc1 (centres unmarked) [Example 4, 2-(4,6-dichloro-5-(2-(trifluoromethoxy)phenyl)-1H-benzo[d]imidazol-2-yl)-2-(4-(ethylsulfonyl)phenyl)ethanol] | 0.053 µM | – |
| 0.626 µM | CCS(=O)(=O)c1ccc(C(O)c2nc3c(Cl)c(-c4ccccc4OC(F)(F)F)c(Cl)cc3[nH]2)cc1 (centres unmarked) [Example 5, (4,6-dichloro-5-(2-(trifluoromethoxy)phenyl)-1H-benzo[d]imidazol-2-yl)(4-(ethylsulfonyl)phenyl)methanol] | 0.025 µM | – |
| 0.003 µM | CCS(=O)(=O)c1ccc(C(CO)c2nc3c(Cl)c(-c4ccccc4OC)c(Cl)cc3[nH]2)cc1 (centres unmarked) [Example 6, 2-(4,6-dichloro-5-(2-methoxyphenyl)-1H-benzo[d]imidazol-2-yl)-2-(4-(ethylsulfonyl)phenyl)ethanol] | 0.022 µM | – |
| 0.086 µM | CCS(=O)(=O)c1ccc(C(O)c2nc3c(Cl)c(-c4ccccc4OC)c(Cl)cc3[nH]2)cc1 (centres unmarked) [Example 7, (4,6-dichloro-5-(2-methoxyphenyl)-1H-benzo[d]imidazol-2-yl)(4-(ethylsulfonyl)phenyl)methanol] | 0.223 µM | – |
| 0.475 µM | CCS(=O)(=O)c1ccc(C(CO)c2nc3c(Cl)c(-c4ccccc4OC(C)C)c(Cl)cc3[nH]2)cc1 (centres unmarked) [Example 9, 2-(4,6-dichloro-5-(2-isopropoxyphenyl)-1H-benzo[d]imidazol-2-yl)-2-(4-(ethylsulfonyl)phenyl)ethanol] | 0.01 µM | – |
| 0.675 µM | CCS(=O)(=O)c1ccc(Cc2nc3c(Cl)c(-c4ccccc4OCOC)c(Cl)cc3[nH]2)cc1 [Example 13, 4,6-dichloro-2-(4-(ethylsulfonyl)benzyl)-5-(2-(methoxymethoxy)phenyl)-1H-benzo[d]imidazole] | 0.082 µM | – |
| 0.086 µM | CCS(=O)(=O)c1ccc(C(CO)c2nc3c(Cl)c(-c4ccccc4OCOC)c(Cl)cc3[nH]2)cc1 (centres unmarked) [Example 14, 2-(4,6-dichloro-5-(2-methoxymethoxyphenyl)-1H-benzo[d]imidazol-2-yl)-2-(4-(ethylsulfonyl)phenyl)ethanol] | 0.022 µM | – |
| 0.052 µM | CCS(=O)(=O)c1ccc(Cc2nc3c(Cl)c(-c4ccccc4OCCOC)c(Cl)cc3[nH]2)cc1 [Example 19, 4,6-dichloro-2-(4-(ethylsulfonyl)benzyl)-5-(2-(2-methoxyethoxy)phenyl)-1H-benzo[d]imidazole] | 0.343 µM | – |
| 0.013 µM | CCS(=O)(=O)c1ccc(C(CO)c2nc3c(Cl)c(-c4ccccc4OCCOC)c(Cl)cc3[nH]2)cc1 (centres unmarked) [Example 20, 2-(4,6-dichloro-5-(2-(2-methoxyethoxy)phenyl)-1H-benzo[d]imidazol-2-yl)-2-(4-(ethylsulfonyl)phenyl)ethanol] | 0.056 µM | – |
| 0.083 µM | CCS(=O)(=O)c1ccc(C(O)c2nc3c(Cl)c(-c4ccccc4OCCOC)c(Cl)cc3[nH]2)cc1 (centres unmarked) [Example 21, (4,6-dichloro-5-(2-(2-methoxyethoxy)phenyl)-1H-benzo[d]imidazol-2-yl)(4-(ethylsulfonyl)phenyl)methanol] | 0.453 µM | – |
| 0.318 µM | CCS(=O)(=O)c1ccc(C(O)c2nc3c(Cl)c(-c4ccccc4C#N)c(Cl)cc3[nH]2)cc1 (centres unmarked) [Example 23, 2-(4,6-dichloro-2-((4-(ethylsulfonyl)phenyl)(hydroxy)methyl)-1H-benzo[d]imidazol-5-yl)benzonitrile] | 0.075 µM | – |
